Here are results for 71 compounds from the Kinase Knowledgebase extract (Sharma et al. 2016).

The assay has as its target MAPK14;MAPK11;MAPK12;MAPK13 (human) (UniProt Q16539). The experiment in a line: Assessment of MAPK11/MAPK12/MAPK13/MAPK14 Kinase Activity.

Take `Cc1ccc(C(=O)NC2CC2)cc1-c1ccn2c(NC(C)C)nnc2c1`: the IC50 was less than 25 nM. For `Cc1ccc(C(=O)NC2(C)CC2)cc1-c1ccn2c(-c3ccccc3Cl)nnc2c1`, the IC50 is less than 25 nM. On to `Cc1ccc(C(=O)NC2CC2)cc1-c1ccn2c(-c3ccccc3C)nnc2c1`, for which the IC50 was less than 25 nM.

For the compound `Cc1ccc(C(=O)NC2CC2)cc1-c1ccn2c(N3CCCC3)nnc2c1`, the IC50 was less than 25 nM.

On to `Cc1ccc(C(=O)NC2CC2)cc1-c1ccn2c(C3CCOCC3)nnc2c1`, for which the IC50 was less than 25 nM.

Consider `Cc1ccc(C(=O)NC2CC2)cc1-c1ccn2c(C(C)C)nnc2c1`, for which the IC50 is less than 25 nM. To `Cc1ccc(C(=O)NC2CC2)cc1-c1ccn2c(N3CCCCC3)nnc2c1` belongs less than 25 nM; to `Cc1ccc(C(=O)NC2CC2)cc1-c1ccn2c(CC(C)(C)C)nnc2c1`, less than 25 nM; to `Cc1ccc(C(=O)Nc2ccnn2C)cc1-c1ccn2c(-c3ccccc3F)nnc2c1`, less than 25 nM.

`Cc1ccc(C(=O)Nc2ccnn2C)cc1-c1ccn2c(-c3cnccc3C(F)(F)F)ncc2c1` gave an IC50 of less than 25 nM.

Take `Cc1ccc(C(=O)NC2CC2)cc1-c1ccn2c(C(C)(C)C)nnc2c1`: the IC50 is less than 25 nM.

Turning to `CCNC(=O)c1ccc(C)c(-c2ccn3c(-c4ccccc4Cl)nnc3c2)c1`, the IC50 was less than 25 nM. The figure for `Cc1ccc(C(=O)Nc2ccnn2C)cc1-c1ccn2c(-c3cccc(F)c3Cl)nnc2c1` is less than 25 nM. Consider `Cc1ccc(C(=O)NC2CC2)cc1-c1ccn2c(-c3ccccc3Cl)nnc2c1`, for which the IC50 is less than 25 nM.

The compound `Cc1ccc(C(=O)Nc2ccnn2C)cc1-c1ccn2c(-c3cc(F)c(F)cc3Cl)nnc2c1` displayed an IC50 of less than 25 nM. Turning to `Cc1ccc(C(=O)NC2CC2)cc1-c1ccn2c(-c3sccc3C)nnc2c1`, the IC50 is less than 25 nM.

In turn, `Cc1ccc(C(=O)NC2CC2)cc1-c1ccn2c(C3CCCC3)nnc2c1` yielded an IC50 of less than 25 nM. To `Cc1ccc(C(=O)NC2CC2)cc1-c1ccn2c(-c3c(Cl)cccc3Cl)nnc2c1` belongs less than 25 nM. The compound `COc1ccccc1-c1nnc2cc(-c3cc(C(=O)NC4CC4)ccc3C)ccn12` gave an IC50 of less than 25 nM. To `Cc1ccc(C(=O)NC2CC2)cc1-c1ccn2c(C3(C(F)(F)F)CC3)nnc2c1` belongs less than 25 nM. `Cc1c(F)cc(C(=O)NC2CC2)cc1-c1ccn2c(-c3ccccc3Cl)nnc2c1` displayed an IC50 of less than 25 nM. `Cc1ccc(C(=O)NC2CC2)cc1-c1ccn2c(-c3ccccc3F)nnc2c1` registered an IC50 of less than 25 nM.

`Cc1ccc(C(=O)NC2CC2)cc1-c1ccn2c(-c3sccc3Cl)nnc2c1` displayed an IC50 of less than 25 nM. `Cc1ccc(C(=O)NC2CC2)cc1-c1ccn2c(Nc3ccccc3)nnc2c1` returned an IC50 of less than 25 nM. `Cc1ccc(C(=O)NC2CC2)cc1-c1ccn2c(-c3cccc(F)c3Cl)nnc2c1` had an IC50 of less than 25 nM.

For `Cc1c(F)cc(C(=O)NC2CC2)cc1-c1ccn2c(-c3c(Cl)cccc3Cl)nnc2c1`, the IC50 was less than 25 nM. Take `Cc1ccc(C(N)=O)cc1-c1ccn2c(-c3ccccc3Cl)nnc2c1`: the IC50 is less than 25 nM. To `Cc1ccc(C(=O)NC2CC2)cc1-c1ccn2c(-c3ccc(F)cc3C)ncc2c1` belongs less than 25 nM; to `Cc1ccc(C(=O)NC2CC2)cc1-c1cc2nnc(-c3ccccc3Cl)n2cc1C`, less than 25 nM.

As to `Cc1ccc(C(=O)Nc2ccnn2C)cc1-c1cc2nnc(-c3ccccc3Cl)n2cc1C`, the IC50 is less than 25 nM. To `Cc1ccc(C(=O)NC2CC2)cc1-c1ccn2c(-c3ccc(S(C)(=O)=O)cc3Cl)nnc2c1` belongs less than 25 nM; to `Cc1ccc(C(=O)Nc2ccnn2C)cc1-c1ccn2c(-c3ccc(F)cc3C)nnc2c1`, less than 25 nM; to `Cc1ccc(C(=O)NC2CC2)cc1-c1ccn2c(-c3ccncc3Cl)nnc2c1`, less than 25 nM. The figure for `Cc1cccc(F)c1-c1nnc2cc(-c3cc(C(=O)NC4CC4)cc(F)c3C)ccn12` is less than 25 nM; for `Cc1ccc(C(=O)Nc2ccnn2C)cc1-c1ccn2c(C3(C(F)(F)F)CC3)nnc2c1` it is less than 25 nM; for `Cc1ccccc1-c1nnc2cc(-c3cc(C(=O)NC4CC4)cc(F)c3C)ccn12` it is less than 25 nM.

On to `Cc1c(F)cc(C(=O)NC2CC2)cc1-c1ccn2c(-c3ccccc3C(F)(F)F)nnc2c1`, for which the IC50 is less than 25 nM. Turning to `Cc1ccc(C(=O)NC2CC2)cc1-c1ccn2c(-c3ccc(F)cc3C)nnc2c1`, the half-inhibitory concentration (IC50) is less than 25 nM. As for `Cc1ccc(C(=O)Nc2ccnn2C)cc1-c1ccn2c(-c3sccc3C)nnc2c1`, the half-maximal inhibitory concentration (IC50) is less than 25 nM. `CCc1ccccc1-c1nnc2cc(-c3cc(C(=O)NC4CC4)ccc3C)ccn12` showed an IC50 of less than 25 nM.

`Cc1ccc(C(=O)NC2CC2)cc1-c1cc(C)n2c(-c3ccccc3Cl)nnc2c1` gave an IC50 of less than 25 nM. In the case of `Cc1ccc(C(=O)Nc2ccon2)cc1-c1ccn2c(-c3c(F)cccc3F)nnc2c1`, the IC50 was less than 25 nM. For the compound `Cc1ccc(C(=O)NC2CC2)cc1-c1ccn2c(-c3ccccc3C(F)(F)F)nnc2c1`, the IC50 is less than 25 nM. The figure for `Cc1ccc(C(=O)Nc2ccnn2C)cc1-c1ccn2c(-c3ccc(F)cc3C)ncc2c1` is less than 25 nM; for `Cc1ccc(C(=O)NC2CC2)cc1-c1ccn2c(C3CC3)nnc2c1` it is less than 25 nM. Regarding `Cc1cc(F)c(C(=O)NC2CC2)cc1-c1ccn2c(-c3ccccc3Cl)nnc2c1`, the IC50 is less than 25 nM.

On to `Cc1ccc(C(=O)NC2CC2)cc1-c1ccn2c(C3CCCCC3)nnc2c1`, for which the IC50 was less than 25 nM. The compound `Cc1ccc(C(=O)Nc2ccnn2C)cc1-c1ccn2c(-c3cc(F)ccc3Cl)nnc2c1` had an IC50 of less than 25 nM. For `Cc1ccc(C(=O)Nc2ccnn2C)cc1-c1ccn2c(-c3cc(F)cc(F)c3)ncc2c1`, the IC50 is less than 25 nM. Take `Cc1ccc(C(=O)NC2CC2)cc1-c1ccn2c(-c3c(C)cccc3F)nnc2c1`: the IC50 is less than 25 nM. To `Cc1cccc(Cl)c1-c1nnc2cc(-c3cc(C(=O)NC4CC4)cc(F)c3C)ccn12` belongs less than 25 nM. The figure for `Cc1ccc(C(=O)Nc2ccnn2C)cc1-c1ccn2c(C(C)C)nnc2c1` is less than 25 nM; for `Cc1ccc(C(=O)NC2CC2)cc1-c1ccn2c(Cc3ccccc3)nnc2c1` it is less than 25 nM; for `Cc1ccc(C(=O)NC2CC2)cc1-c1ccn2c(-c3ccccc3)nnc2c1` it is less than 25 nM.

Regarding `Cc1ccc(C(=O)NC2CC2)cc1-c1ccn2c(-c3cc(F)c(F)cc3Cl)nnc2c1`, the IC50 was less than 25 nM. To `Cc1ccc(C(=O)Nc2ccnn2C)cc1-c1ccn2c(-c3ccccc3Cl)nnc2c1` belongs less than 25 nM; to `Cc1ccc(C(=O)Nc2ccnn2C)cc1-c1ccn2c(-c3ccc(F)cc3Cl)nnc2c1`, less than 25 nM; to `Cc1ccc(C(=O)NC2CC2)cc1-c1ccn2c(-c3c(F)cccc3Cl)nnc2c1`, less than 25 nM. `Cc1c(F)cc(C(=O)NC2CC2)cc1-c1ccn2c(-c3c(F)cccc3F)nnc2c1` yielded an IC50 of less than 25 nM.

For `Cc1c(F)cc(C(=O)NC2CC2)cc1-c1ccn2c(-c3c(F)cccc3Cl)nnc2c1`, the concentration for half-maximal inhibition (IC50) was less than 25 nM. `Cc1c(F)cc(C(=O)Nc2ccon2)cc1-c1ccn2c(-c3c(F)cccc3F)nnc2c1` had an IC50 of less than 25 nM.

In turn, `Cc1ncoc1-c1nnc2cc(-c3cc(C(=O)NC4CC4)cc(F)c3C)ccn12` gave an IC50 of less than 25 nM.

`Cc1ccc(C(=O)NC2CC2)cc1-c1ccn2c(-c3c(C)cccc3Cl)nnc2c1` registered an IC50 of less than 25 nM. The figure for `Cc1c(F)cc(C(=O)NC2CC2)cc1-c1ccn2c(-c3ccncc3Cl)nnc2c1` is less than 25 nM; for `Cc1ccc(C(=O)NC2CC2)cc1-c1ccn2c(N(C)c3ccccc3)nnc2c1` it is less than 25 nM. Consider `Cc1c(F)cc(C(=O)NC2CC2)cc1-c1ccn2c(C(C)(C)C)nnc2c1`, for which the IC50 is less than 25 nM.

As for `Cc1ccc(C(=O)NC2CC2)cc1-c1ccn2c(-c3c(F)cccc3C(F)(F)F)nnc2c1`, the IC50 was less than 25 nM. The figure for `Cc1ccc(C(=O)NC2CC2)cc1-c1ccn2c(C34C[C@H]5C[C@@H](C3)C[C@@H](C4)C5)nnc2c1` is less than 25 nM; for `Cc1ccc(C(=O)NC2CC2)cc1-c1ccn2c(-c3cc(F)ccc3Cl)nnc2c1` it is less than 25 nM. Take `Cc1ccc(C(=O)Nc2ccnn2C)cc1-c1ccn2c(-c3ccccc3Cl)ncc2c1`: the IC50 is less than 25 nM.

`Cc1ccc(C(=O)NC2CC2)cc1-c1ccn2c(-c3ccc(F)cc3Cl)nnc2c1` showed an IC50 of less than 25 nM.
